± gives the standard deviation of the averaged measurements.

Compound in assay [1]: Cc1nc(Nc2ncc(C(=O)Nc3c(C)cccc3Cl)s2)cc(N2CCN(CCO)CC2)n1 [DASATINIB]
The experiment in a line: surviving fraction relative to DMSO-only wells; higher = less growth inhibition. To be noted: exposure time: 5 days. The method in brief: (§1)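 Inhibitors at 0.5, 1, 5, 10, 50, 100, 500 and 1000 nM were applied continuously for five days to tumour cell lines seeded in log phase at 250–500 cells per well in 384-well plates 24 hours earlier. Viability was measured by CellTiter-Glo luminescence and expressed as surviving fraction relative to the median of DMSO-only wells. Luminescence was taken after 10 minutes at room temperature.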

Compound in assay [2]: O=C(c1cc(Cc2n[nH]c(=O)c3ccccc23)ccc1F)N1CCN(C(=O)C2CC2)CC1 [OLAPARIB]
The description is as above. The settings on record: exposure time: 5 days. The method, boiled down:
as §1

As to VCAP PROSTATE, the surviving fraction turned out to be 0.856 ± 0.048 in assay [1] (0.5 nM); 0.89 ± 0.014 in assay [1] (1 nM); 0.923 ± 0.026 in assay [1] (5 nM); 0.943 ± 0.091 in assay [1] (10 nM); 1.01 ± 0.12 in assay [1] (50 nM); 1.02 ± 0.11 in assay [1] (100 nM). Moreover, the surviving fraction was 1.02 ± 0.061 in assay [1] (500 nM); 0.932 ± 0.062 in assay [1] (1000 nM); 1.17 ± 0.067 in assay [2] (0.5 nM); 1.1 ± 0.074 in assay [2] (1 nM); 1.17 ± 0.089 in assay [2] (5 nM); 1.04 ± 0.13 in assay [2] (10 nM). Moreover, the surviving fraction came to 1.08 ± 0.09 in assay [2] (50 nM), 1.09 ± 0.12 in assay [2] (100 nM), 1.03 ± 0.089 in assay [2] (500 nM) and 0.922 ± 0.074 in assay [2] (1000 nM).
As to SG32 HEADNECK, the surviving fraction was 0.606 ± 0.048 in assay [1] (0.5 nM); 0.653 ± 0.14 in assay [1] (1 nM); 0.564 ± 0.11 in assay [1] (5 nM); 0.438 ± 0.06 in assay [1] (10 nM); 0.395 ± 0.09 in assay [1] (50 nM); 0.171 ± 0.037 in assay [1] (100 nM). For the same test system, the surviving fraction in assay [1] (500 nM) came to 0.155 ± 0.015; in assay [1] (1000 nM), 0.147 ± 0.022; in assay [2] (0.5 nM) it was 1.23 ± 0.41; in assay [2] (1 nM), 1.43 ± 0.2; in assay [2] (5 nM), 1.23 ± 0.4; in assay [2] (10 nM), 1.24 ± 0.15. The surviving fraction worked out at 1.03 ± 0.054 in assay [2] (50 nM), 1.05 ± 0.22 in assay [2] (100 nM), 0.77 ± 0.042 in assay [2] (500 nM) and 0.795 ± 0.081 in assay [2] (1000 nM).
In the case of MDAMB157 BREAST, the surviving fraction was 0.954 ± 0.12 in assay [1] (0.5 nM); 0.915 ± 0.021 in assay [1] (1 nM); 0.775 ± 0.071 in assay [1] (5 nM); 0.688 ± 0.074 in assay [1] (10 nM); 0.438 ± 0.025 in assay [1] (50 nM); 0.35 ± 0.031 in assay [1] (100 nM). Besides, the surviving fraction in assay [1] (500 nM) is 0.238 ± 0.04; in assay [1] (1000 nM), 0.232 ± 0.038; in assay [2] (0.5 nM) it was 1.01 ± 0.093; in assay [2] (1 nM), 1.06 ± 0.035; in assay [2] (5 nM), 0.992 ± 0.085; in assay [2] (10 nM), 0.968 ± 0.051. For the same test system, the surviving fraction was 0.991 ± 0.096 in assay [2] (50 nM), 0.965 ± 0.043 in assay [2] (100 nM), 0.903 ± 0.079 in assay [2] (500 nM) and 0.729 ± 0.04 in assay [2] (1000 nM).
HCC1806 BREAST: the surviving fraction was 0.682 ± 0.085 in assay [1] (0.5 nM); 0.639 ± 0.021 in assay [1] (1 nM); 0.71 ± 0.059 in assay [1] (5 nM); 0.639 ± 0.075 in assay [1] (10 nM); 0.446 ± 0.017 in assay [1] (50 nM); 0.219 ± 0.038 in assay [1] (100 nM). For the same test system, the surviving fraction is 0.167 ± 0.015 in assay [1] (500 nM); 0.149 ± 0.021 in assay [1] (1000 nM); 0.945 ± 0.059 in assay [2] (0.5 nM); 1.01 ± 0.063 in assay [2] (1 nM); 1.05 ± 0.099 in assay [2] (5 nM); 0.984 ± 0.068 in assay [2] (10 nM). For the same test system, the surviving fraction in assay [2] (50 nM) stood at 0.896 ± 0.12; in assay [2] (100 nM), 0.74 ± 0.041; in assay [2] (500 nM), 0.582 ± 0.065; in assay [2] (1000 nM), 0.567 ± 0.066.
As for SIHA CERVIX, the surviving fraction is 0.876 ± 0.016 in assay [1] (0.5 nM); 0.806 ± 0.013 in assay [1] (1 nM); 0.74 ± 0.026 in assay [1] (5 nM); 0.742 ± 0.019 in assay [1] (10 nM); 0.772 ± 0.046 in assay [1] (50 nM); 0.648 ± 0.052 in assay [1] (100 nM). Further, the surviving fraction in assay [1] (500 nM) was determined as 0.561 ± 0.0062; in assay [1] (1000 nM), 0.543 ± 0.027; in assay [2] (0.5 nM), 0.988 ± 0.022; in assay [2] (1 nM), 1.07 ± 0.13; in assay [2] (5 nM), 1.02 ± 0.073; in assay [2] (10 nM) it was 1.03 ± 0.044. Besides, the surviving fraction in assay [2] (50 nM) was 0.967 ± 0.053; in assay [2] (100 nM), 1.04 ± 0.061; in assay [2] (500 nM), 0.91 ± 0.067; in assay [2] (1000 nM), 0.886 ± 0.061.

The values are drawn from the supplement of paper PMC6045584.
